Where two headings read alike, the source gives them in different places.
Legend:
Assay in all cases: TGFα-shedding assay-based GPCR screening with chimeric Gα subunit proteins
Format in all cases: cell-based
348 GPCRs [1] = biological target: T1, 348 GPCRs (Homo sapiens, UniProt O95800); details: 10µM, Favipiravir 100μM
T1 construct: expressed in transfected cells; host or cells: HEK293A

348 GPCRs [2] = biological target: T2, 348 GPCRs (Homo sapiens, UniProt P16473); details: 10µM, Favipiravir 100μM
T2 construct: expressed in transfected cells; host or cells: HEK293A
T2 sequence (P16473 21-764): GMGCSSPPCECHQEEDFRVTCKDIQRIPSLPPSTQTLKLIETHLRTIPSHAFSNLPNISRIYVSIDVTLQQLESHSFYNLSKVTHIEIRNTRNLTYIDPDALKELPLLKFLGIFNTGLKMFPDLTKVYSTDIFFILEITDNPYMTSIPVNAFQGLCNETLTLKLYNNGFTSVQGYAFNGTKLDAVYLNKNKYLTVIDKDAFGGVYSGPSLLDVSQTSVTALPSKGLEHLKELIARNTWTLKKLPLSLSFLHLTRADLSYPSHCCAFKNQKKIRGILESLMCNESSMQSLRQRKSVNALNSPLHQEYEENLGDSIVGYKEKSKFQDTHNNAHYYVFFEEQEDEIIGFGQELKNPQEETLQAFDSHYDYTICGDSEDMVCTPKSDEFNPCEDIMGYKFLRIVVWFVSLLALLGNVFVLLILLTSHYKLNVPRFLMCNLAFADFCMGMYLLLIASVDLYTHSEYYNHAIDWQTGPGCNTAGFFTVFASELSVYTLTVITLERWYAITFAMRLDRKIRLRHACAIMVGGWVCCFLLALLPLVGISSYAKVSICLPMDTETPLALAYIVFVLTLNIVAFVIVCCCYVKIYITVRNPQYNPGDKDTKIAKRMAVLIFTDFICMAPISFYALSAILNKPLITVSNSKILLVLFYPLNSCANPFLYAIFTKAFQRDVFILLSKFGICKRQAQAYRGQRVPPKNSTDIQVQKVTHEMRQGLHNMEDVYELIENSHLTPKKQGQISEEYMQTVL

348 GPCRs [3] = biological target: T3, 348 GPCRs (Homo sapiens, UniProt P21730); details: 10µM, Favipiravir 100μM
T3 construct: expressed in transfected cells; host or cells: HEK293A
T3 sequence (P21730 1-350): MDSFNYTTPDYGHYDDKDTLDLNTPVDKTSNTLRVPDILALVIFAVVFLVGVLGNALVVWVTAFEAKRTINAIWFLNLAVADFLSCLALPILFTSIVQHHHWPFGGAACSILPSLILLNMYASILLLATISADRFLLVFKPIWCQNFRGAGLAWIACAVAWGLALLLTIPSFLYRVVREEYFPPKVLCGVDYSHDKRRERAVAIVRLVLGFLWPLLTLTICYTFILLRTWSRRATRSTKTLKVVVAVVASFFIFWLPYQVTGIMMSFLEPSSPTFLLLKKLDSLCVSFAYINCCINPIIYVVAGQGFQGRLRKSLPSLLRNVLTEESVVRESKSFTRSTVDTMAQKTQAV

348 GPCRs [4] = biological target: 348 GPCRs (Homo sapiens, UniProt P25021); details: 10µM, Favipiravir 100μM
Chain of 348 GPCRs (Homo sapiens, UniProt P25021) (P25021 whole entry): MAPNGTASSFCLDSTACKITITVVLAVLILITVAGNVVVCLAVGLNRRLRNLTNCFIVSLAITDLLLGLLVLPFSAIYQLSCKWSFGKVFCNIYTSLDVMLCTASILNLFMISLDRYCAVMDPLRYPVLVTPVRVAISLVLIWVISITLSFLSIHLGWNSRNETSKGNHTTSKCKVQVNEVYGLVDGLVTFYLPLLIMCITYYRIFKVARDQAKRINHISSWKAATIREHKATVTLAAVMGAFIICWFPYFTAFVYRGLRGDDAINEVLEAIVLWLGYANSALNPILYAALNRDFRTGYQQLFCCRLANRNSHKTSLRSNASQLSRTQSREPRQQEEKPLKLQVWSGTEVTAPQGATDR

348 GPCRs [5] = biological target: T4, 348 GPCRs (Homo sapiens, UniProt P32246); details: 10µM, Favipiravir 100μM
T4 construct: expressed in transfected cells; host or cells: HEK293A
T4 sequence (P32246 1-355): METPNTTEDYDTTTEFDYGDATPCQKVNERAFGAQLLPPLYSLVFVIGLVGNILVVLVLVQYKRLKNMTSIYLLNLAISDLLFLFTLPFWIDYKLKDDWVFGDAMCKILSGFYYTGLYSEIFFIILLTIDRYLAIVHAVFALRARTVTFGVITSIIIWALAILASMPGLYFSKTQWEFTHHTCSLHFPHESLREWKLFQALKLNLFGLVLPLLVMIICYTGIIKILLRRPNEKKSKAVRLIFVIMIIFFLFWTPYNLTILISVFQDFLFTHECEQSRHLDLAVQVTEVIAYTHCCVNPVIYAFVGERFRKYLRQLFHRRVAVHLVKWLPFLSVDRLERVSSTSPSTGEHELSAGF

348 GPCRs [6] = biological target: T5, 348 GPCRs (Homo sapiens, UniProt P32247); details: 10µM, Favipiravir 100μM
T5 construct: expressed in transfected cells; host or cells: HEK293A
T5 sequence (P32247 1-399): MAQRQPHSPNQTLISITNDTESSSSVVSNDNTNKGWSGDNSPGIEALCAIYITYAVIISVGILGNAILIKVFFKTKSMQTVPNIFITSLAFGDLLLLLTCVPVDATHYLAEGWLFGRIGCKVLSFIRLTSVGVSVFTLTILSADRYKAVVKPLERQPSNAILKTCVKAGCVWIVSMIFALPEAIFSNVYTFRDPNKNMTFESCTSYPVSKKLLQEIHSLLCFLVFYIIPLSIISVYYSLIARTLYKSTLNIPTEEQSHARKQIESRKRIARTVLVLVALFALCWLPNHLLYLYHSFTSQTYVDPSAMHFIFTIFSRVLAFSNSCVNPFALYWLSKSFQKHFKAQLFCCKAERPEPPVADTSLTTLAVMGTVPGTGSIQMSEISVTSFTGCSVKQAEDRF

348 GPCRs [7] = biological target: T6, 348 GPCRs (Homo sapiens, UniProt P35408); details: 10µM, Favipiravir 100μM
T6 construct: expressed in transfected cells; host or cells: HEK293A
T6 sequence (P35408 whole entry): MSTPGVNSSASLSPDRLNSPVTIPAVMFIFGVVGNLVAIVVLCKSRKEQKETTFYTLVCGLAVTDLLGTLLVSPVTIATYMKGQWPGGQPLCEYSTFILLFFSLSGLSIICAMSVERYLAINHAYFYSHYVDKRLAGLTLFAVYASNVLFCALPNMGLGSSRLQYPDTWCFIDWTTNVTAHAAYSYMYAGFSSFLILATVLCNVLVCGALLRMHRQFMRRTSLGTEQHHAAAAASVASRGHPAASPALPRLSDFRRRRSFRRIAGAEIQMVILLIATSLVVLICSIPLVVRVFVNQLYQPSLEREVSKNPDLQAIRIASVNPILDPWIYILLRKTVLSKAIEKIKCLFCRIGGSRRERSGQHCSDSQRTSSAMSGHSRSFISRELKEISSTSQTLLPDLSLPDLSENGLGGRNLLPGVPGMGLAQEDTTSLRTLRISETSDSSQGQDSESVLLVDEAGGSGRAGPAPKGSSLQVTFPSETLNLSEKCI

348 GPCRs [8] = biological target: T7, 348 GPCRs (Homo sapiens, UniProt Q14833); details: 10µM, Favipiravir 100μM
T7 construct: expressed in transfected cells; host or cells: HEK293A
T7 sequence (Q14833 33-912): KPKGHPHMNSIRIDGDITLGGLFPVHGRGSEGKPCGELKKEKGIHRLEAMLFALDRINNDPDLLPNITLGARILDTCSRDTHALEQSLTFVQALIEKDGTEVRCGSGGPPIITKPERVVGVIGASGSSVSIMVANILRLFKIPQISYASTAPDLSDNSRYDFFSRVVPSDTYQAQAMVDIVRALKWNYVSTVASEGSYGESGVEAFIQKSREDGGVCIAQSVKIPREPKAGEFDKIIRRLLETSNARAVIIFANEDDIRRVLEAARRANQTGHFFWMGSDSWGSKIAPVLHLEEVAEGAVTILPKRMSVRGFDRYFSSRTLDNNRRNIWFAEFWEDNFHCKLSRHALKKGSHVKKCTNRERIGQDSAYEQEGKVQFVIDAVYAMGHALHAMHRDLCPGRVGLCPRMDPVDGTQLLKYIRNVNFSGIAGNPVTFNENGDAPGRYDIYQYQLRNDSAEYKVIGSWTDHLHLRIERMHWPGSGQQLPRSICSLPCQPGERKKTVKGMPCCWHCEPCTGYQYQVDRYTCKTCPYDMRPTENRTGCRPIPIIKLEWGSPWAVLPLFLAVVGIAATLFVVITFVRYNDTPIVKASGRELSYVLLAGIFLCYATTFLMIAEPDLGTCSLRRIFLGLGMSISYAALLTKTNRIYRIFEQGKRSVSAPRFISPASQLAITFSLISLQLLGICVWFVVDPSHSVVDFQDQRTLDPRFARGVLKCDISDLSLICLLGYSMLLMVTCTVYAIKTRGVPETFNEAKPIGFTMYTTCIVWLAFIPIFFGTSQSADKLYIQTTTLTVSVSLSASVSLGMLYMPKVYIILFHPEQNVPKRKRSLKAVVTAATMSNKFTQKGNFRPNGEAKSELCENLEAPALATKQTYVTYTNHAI

348 GPCRs [9] = biological target: T8, 348 GPCRs (Homo sapiens, UniProt Q15761); details: 10µM, Favipiravir 100μM
T8 construct: expressed in transfected cells; host or cells: HEK293A
T8 sequence (Q15761 1-445): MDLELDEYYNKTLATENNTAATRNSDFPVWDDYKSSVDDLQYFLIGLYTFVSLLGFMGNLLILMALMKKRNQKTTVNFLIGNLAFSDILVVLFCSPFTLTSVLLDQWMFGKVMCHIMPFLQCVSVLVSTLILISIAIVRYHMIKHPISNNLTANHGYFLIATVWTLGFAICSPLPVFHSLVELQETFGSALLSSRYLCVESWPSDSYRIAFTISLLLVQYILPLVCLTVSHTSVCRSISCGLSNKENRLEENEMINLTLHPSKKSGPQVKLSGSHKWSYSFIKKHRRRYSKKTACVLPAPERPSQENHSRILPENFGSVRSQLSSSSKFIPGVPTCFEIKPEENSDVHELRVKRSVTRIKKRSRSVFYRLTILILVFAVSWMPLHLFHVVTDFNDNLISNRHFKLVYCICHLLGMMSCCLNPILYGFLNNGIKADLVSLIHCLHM

348 GPCRs [10] = biological target: 348 GPCRs (Homo sapiens, UniProt Q8IYL9); details: GPCR GPR65 (G protein-coupled receptor 65)
Chain of 348 GPCRs (Homo sapiens, UniProt Q8IYL9) (Q8IYL9 whole entry): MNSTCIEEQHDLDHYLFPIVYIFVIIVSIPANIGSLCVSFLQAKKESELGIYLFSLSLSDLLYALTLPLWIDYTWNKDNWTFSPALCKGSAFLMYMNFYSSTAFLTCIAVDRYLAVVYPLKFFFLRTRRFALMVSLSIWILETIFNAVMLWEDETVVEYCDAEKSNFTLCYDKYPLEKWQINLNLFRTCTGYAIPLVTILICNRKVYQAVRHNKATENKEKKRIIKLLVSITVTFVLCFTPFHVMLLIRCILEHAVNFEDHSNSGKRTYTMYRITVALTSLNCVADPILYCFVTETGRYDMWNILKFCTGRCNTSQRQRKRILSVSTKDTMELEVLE

348 GPCRs [11] = biological target: T9, 348 GPCRs (Homo sapiens, UniProt Q9H255); details: 10µM, Favipiravir 100μM
T9 construct: expressed in transfected cells; host or cells: HEK293A
T9 sequence (Q9H255 1-320): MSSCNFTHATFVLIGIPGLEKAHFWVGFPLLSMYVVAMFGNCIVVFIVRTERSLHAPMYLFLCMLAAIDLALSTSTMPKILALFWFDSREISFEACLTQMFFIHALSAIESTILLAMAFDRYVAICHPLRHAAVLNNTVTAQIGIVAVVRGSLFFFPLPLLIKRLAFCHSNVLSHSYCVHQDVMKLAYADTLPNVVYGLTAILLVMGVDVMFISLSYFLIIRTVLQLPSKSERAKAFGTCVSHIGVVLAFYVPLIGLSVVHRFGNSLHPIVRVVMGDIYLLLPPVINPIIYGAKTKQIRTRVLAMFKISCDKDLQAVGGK

[12] = GPR75 (G protein-coupled receptor 75), read-out: % GPCR activation compared to TPA
[13] = TSHR (thyroid stimulating hormone receptor), read-out: % GPCR activation compared to TPA
[14] = C5AR1 (complement C5a receptor 1), read-out: % GPCR activation compared to TPA
[15] = H2 (histamine receptor H2), read-out: % GPCR activation compared to TPA
[16] = CCR1 (chemokine (C-C motif) receptor 1), read-out: % GPCR activation compared to TPA
[17] = BB3 (Bombesin receptor, subtype 3), read-out: % GPCR activation compared to TPA
[18] = EP4 (prostaglandin E receptor 4), read-out: % GPCR activation compared to TPA
[19] = GRM4 (glutamate receptor, metabotropic 4), read-out: % GPCR activation compared to TPA
[20] = NPY5R (neuropeptide Y Receptor Y5), read-out: % GPCR activation compared to TPA
[21] = OR51E2 (olfactory receptor, family 51, subfamily E, member 2), read-out: % GPCR activation compared to TPA
[22] = read-out: % GPCR activation compared to TPA, GPR75 (G protein-coupled receptor 75)
[23] = read-out: % GPCR activation compared to TPA, TSHR (thyroid stimulating hormone receptor)
[24] = read-out: % GPCR activation compared to TPA, C5AR1 (complement C5a receptor 1)
[25] = read-out: % GPCR activation compared to TPA, H2 (histamine receptor H2)
[26] = read-out: % GPCR activation compared to TPA, CCR1 (chemokine (C-C motif) receptor 1)
[27] = read-out: % GPCR activation compared to TPA, BB3 (Bombesin receptor, subtype 3)
[28] = read-out: % GPCR activation compared to TPA, EP4 (prostaglandin E receptor 4)
[29] = read-out: % GPCR activation compared to TPA, GRM4 (glutamate receptor, metabotropic 4)
[30] = read-out: % GPCR activation compared to TPA, NPY5R (neuropeptide Y Receptor Y5)
[31] = read-out: % GPCR activation compared to TPA, OR51E2 (olfactory receptor, family 51, subfamily E, member 2)

T1 sequence (O95800 whole entry): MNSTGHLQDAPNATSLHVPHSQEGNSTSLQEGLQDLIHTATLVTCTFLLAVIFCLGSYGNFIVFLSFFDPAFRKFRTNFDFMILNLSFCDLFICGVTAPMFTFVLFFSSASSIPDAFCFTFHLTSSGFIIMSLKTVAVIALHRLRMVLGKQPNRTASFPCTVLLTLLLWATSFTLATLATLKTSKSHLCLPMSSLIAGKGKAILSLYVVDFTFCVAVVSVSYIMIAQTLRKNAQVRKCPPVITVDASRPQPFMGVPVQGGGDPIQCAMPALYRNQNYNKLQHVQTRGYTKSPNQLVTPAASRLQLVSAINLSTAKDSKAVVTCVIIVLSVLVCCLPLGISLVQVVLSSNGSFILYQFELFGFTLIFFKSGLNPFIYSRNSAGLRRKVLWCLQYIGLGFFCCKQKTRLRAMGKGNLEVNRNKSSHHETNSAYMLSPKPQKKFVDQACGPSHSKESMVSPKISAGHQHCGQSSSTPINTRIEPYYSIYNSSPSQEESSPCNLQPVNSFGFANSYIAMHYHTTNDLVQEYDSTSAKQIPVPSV

N#C[C@@]1(c2ccc3c(N)ncnn23)O[C@H](CO)[C@@H](O)[C@H]1O [GS441524]
activation at 10 µM (348 GPCRs [1]; [12]): 2.27% | activation at 10 µM (348 GPCRs [2]; [13]): -1.39% | activation at 10 µM (348 GPCRs [3]; [14]): -2.17% | activation at 10 µM (348 GPCRs [4]; [15]): -1.14% | activation at 100 µM (348 GPCRs [5]; [16]): 4.02% | activation at 10 µM (348 GPCRs [6]; [17]): 1.72% | activation at 10 µM (348 GPCRs [7]; [18]): -2.87% | activation at 10 µM (348 GPCRs [8]; [19]): 1.52% | activation at 100 µM (348 GPCRs [9]; [20]): 0.212% | % GPCR activation compared to TPA (348 GPCRs [10]; 10µM): -3.0793% | activation at 10 µM (348 GPCRs [11]; [21]): 0.751%

CC(C)OC(=O)[C@H](C)N[P@](=O)(OC[C@H]1O[C@@H](n2ccc(=O)[nH]c2=O)[C@](C)(F)[C@@H]1O)Oc1ccccc1 [sofosbuvir]
activation at 10 µM (348 GPCRs [1]; [22]): -12.7% | activation at 10 µM (348 GPCRs [2]; [23]): -0.338% | activation at 10 µM (348 GPCRs [3]; [24]): -2.89% | activation at 10 µM (348 GPCRs [4]; [25]): -0.476% | activation at 100 µM (348 GPCRs [5]; [26]): -1.9% | activation at 10 µM (348 GPCRs [6]; [27]): 7.68% | activation at 10 µM (348 GPCRs [7]; [28]): 0.58% | activation at 10 µM (348 GPCRs [8]; [29]): 2.56% | activation at 100 µM (348 GPCRs [9]; [30]): -4.22% | % GPCR activation compared to TPA (348 GPCRs [10]; 10µM): -10.455% | activation at 10 µM (348 GPCRs [11]; [31]): -1.75%

CCC(CC)COC(=O)[C@H](C)N[P@](=O)(OC[C@H]1O[C@@](C#N)(c2ccc3c(N)ncnn23)[C@H](O)[C@@H]1O)Oc1ccccc1 [remdesivir]
activation at 10 µM (348 GPCRs [1]; [22]): 4.18% | activation at 10 µM (348 GPCRs [2]; [23]): -3.29% | activation at 10 µM (348 GPCRs [3]; [24]): -1.43% | activation at 10 µM (348 GPCRs [4]; [25]): 2.05% | activation at 100 µM (348 GPCRs [5]; [26]): 2.29% | activation at 10 µM (348 GPCRs [6]; [27]): 2.03% | activation at 10 µM (348 GPCRs [7]; [28]): 4.74% | activation at 10 µM (348 GPCRs [8]; [29]): -0.0103% | activation at 100 µM (348 GPCRs [9]; [30]): 0.934% | % GPCR activation compared to TPA (348 GPCRs [10]; 10µM): -1.387% | activation at 10 µM (348 GPCRs [11]; [31]): 0.358%

CC(C)C(=O)OC[C@H]1O[C@@H](n2ccc(NO)nc2=O)[C@H](O)[C@@H]1O [molnupiravir]
activation at 10 µM (348 GPCRs [1]; [12]): -9.47% | activation at 10 µM (348 GPCRs [2]; [13]): -0.502% | activation at 10 µM (348 GPCRs [3]; [14]): -2.78% | activation at 10 µM (348 GPCRs [4]; [15]): -0.335% | activation at 100 µM (348 GPCRs [5]; [16]): -1.8% | activation at 10 µM (348 GPCRs [6]; [17]): 0.338% | activation at 10 µM (348 GPCRs [7]; [18]): 0.931% | activation at 10 µM (348 GPCRs [8]; [19]): -0.478% | activation at 100 µM (348 GPCRs [9]; [20]): -5.02% | % GPCR activation compared to TPA (348 GPCRs [10]; 10µM): -8.376% | activation at 10 µM (348 GPCRs [11]; [21]): -0.989%

NC(=O)c1nc(F)cnc1O [favipiravir, 6-fluoro-3-hydroxy-2-pyrazinecarboxamide]
activation at 10 µM (348 GPCRs [1]; [12]): 6.14% | activation at 10 µM (348 GPCRs [2]; [13]): -1.11% | activation at 10 µM (348 GPCRs [3]; [14]): -6.83% | activation at 10 µM (348 GPCRs [4]; [15]): 0.663% | activation at 100 µM (348 GPCRs [5]; [16]): 5.15% | activation at 10 µM (348 GPCRs [6]; [17]): -0.00483% | activation at 10 µM (348 GPCRs [7]; [18]): -1.55% | activation at 10 µM (348 GPCRs [8]; [19]): 1.65% | activation at 100 µM (348 GPCRs [9]; [20]): -1.82% | % GPCR activation compared to TPA (348 GPCRs [10]; 100μM): 1.278% | activation at 10 µM (348 GPCRs [11]; [21]): -0.415%

— paper PMC10175918 (Communications Biology, 2023)
